Earlier results on 1 molecule are cited in patent US20160000731A1, “SORE-THROAT COMPOSITIONS AND RELATED METHODS” (Xlear, Inc., priority 2014, published 2016).

In one data set the test system is Streptococcus pneumonia. The note with it: in vitro, during its logarithmic growth phase.
For the next data set, the system named is dental caries. The conditions noted are these: regular consumption.

In the case of `OC[C@@H](O)[C@H](O)[C@@H](O)CO` [Xylitol], the “growth of Streptococcus pneumonia” value in the data set with Streptococcus pneumonia is listed as “inhibit the growth”. Also, in the data set on dental caries, the “incidence of dental caries” value was “reduce the incidence of dental caries”.
